The target in experiment [1] is Serine-protein kinase ATM (Homo sapiens, UniProt Q13315). Nature of the experiment: Inhibitory Activities of Compounds on ATM. How it is done:
To a 96-well plate, 98 μL of DMSO and 2 μL of the 10 mM stock solution were added and mixed evenly so that the concentration of the solution was 200 μM.

Experiment [2] addresses DNA-dependent protein kinase catalytic subunit (Homo sapiens, UniProt P78527). Nature of the experiment: Inhibitory Activities of Compounds on DNA-PK Kinase: ADP-Glo Kinase Assay. The procedure:
(1) Preparation of 1× kinase buffer40 mM Tris, pH 7.50.0055% Brij-3520 mM MgCl20.05 mM DTT(2) Preparation of test compound1) The compound was dissolved in DMSO to yield a stock solution. Before the assay, the stock solution of the compound was diluted with DMSO to yield a 100× solution at a concentration that is 100 times a target concentration for assay. […] The test plate was shaken for mixing evenly.3) Kinase reactionEach well of the test plate was covered and incubated at room temperature for 3 h.(4) Kinase detection1) The ADP-Glo reagent was equilibrated at room temperature.2) 5 μL of ADP-Glo reagent was added to each well of the test plate to terminate the reaction.3) The plate was centrifuged for a short time to mix evenly, shaken gently, and equilibrated for 120 min.4) 10 μL of kinase detection reagent was added to each well, with shaking for 1 min, after equilibrating for 30 min, […] detection was performed.(5) Reading of the reaction wells(6) Calculation of inhibitory rates by means of curve fitting to the read values.

For experiment [3], the target named is Phosphatidylinositol 4,5-bisphosphate 3-kinase catalytic subunit alpha isoform (Homo sapiens, UniProt P42336). Nature of the experiment: Inhibitory Activities of Compounds on PI3Kα, PI3Kβ, PI3Kγ, and PI3Kδ Kinase: ADP-Glo Kinase Assay. How it is done:
(§1) (1) Preparation of 1× kinase buffer50 mM HEPES, pH 7.53 mM MgCl21 mM EGTA100 mM NaCl0.03% CHAPS2 mM DTT(2) Preparation of test compound1) Dissolution and dilution of compound:The compound was dissolved in DMSO to yield a stock solution. Before the assay, the stock solution of the compound was diluted with DMSO in a 384-well plate to yield a 100× solution at a concentration that is 100 times a target concentration for assay.50 μL of DMSO was added, respectively, into two blank wells in the same 384 well plate, corresponding to the total reaction control without compound and the blank control without enzyme.2) Preparation of test plate: 50 nL of the compound solution in each of the above wells was taken to a test plate.(3) Kinase reaction1) PI3Kα, PI3Kβ, PI3Kγ, and PI3Kδ kinases were dissolved, respectively, in 1× kinase buffer to yield a 2× enzyme solution at a concentration that is twice the final concentration. 2.5 µL of the 2× enzyme solution was taken to each well of the test plate. The blank control without enzyme was added with 2.5 μL of the 1× kinase buffer instead of the enzyme solution. The test plate was shaken for mixing evenly.2) PIP2 substrate and ATP were dissolved in the 1× kinase buffer to yield a 2× substrate solution that is twice the final concentration. 2.5 μL of the 2× substrate solution was taken to each well of the test plate. The test plate was shaken for mixing evenly.3) Kinase reactionEach well of the test plate was covered and incubated at room temperature for 1 h.(4) Kinase detection1) The ADP-Glo reagent was equilibrated at room temperature.2) 5 μL of ADP-Glo reagent was added to each well of the test plate to terminate the reaction.3) The plate was centrifuged for a short time to mix evenly, shaken gently, and equilibrated for 120 min.4) 10 μL of kinase detection reagent was added to each well, with shaking for 1 min, after equilibrating for 30 min, […] detection was performed.(5) Reading of the reaction wells(6) Calculation of inhibitory rates by means of curve fitting to the read values

Experiment [4] deals with T1, Phosphatidylinositol 4,5-bisphosphate 3-kinase catalytic subunit delta isoform (Homo sapiens, UniProt O00329).
T1 sequence (O00329 whole entry): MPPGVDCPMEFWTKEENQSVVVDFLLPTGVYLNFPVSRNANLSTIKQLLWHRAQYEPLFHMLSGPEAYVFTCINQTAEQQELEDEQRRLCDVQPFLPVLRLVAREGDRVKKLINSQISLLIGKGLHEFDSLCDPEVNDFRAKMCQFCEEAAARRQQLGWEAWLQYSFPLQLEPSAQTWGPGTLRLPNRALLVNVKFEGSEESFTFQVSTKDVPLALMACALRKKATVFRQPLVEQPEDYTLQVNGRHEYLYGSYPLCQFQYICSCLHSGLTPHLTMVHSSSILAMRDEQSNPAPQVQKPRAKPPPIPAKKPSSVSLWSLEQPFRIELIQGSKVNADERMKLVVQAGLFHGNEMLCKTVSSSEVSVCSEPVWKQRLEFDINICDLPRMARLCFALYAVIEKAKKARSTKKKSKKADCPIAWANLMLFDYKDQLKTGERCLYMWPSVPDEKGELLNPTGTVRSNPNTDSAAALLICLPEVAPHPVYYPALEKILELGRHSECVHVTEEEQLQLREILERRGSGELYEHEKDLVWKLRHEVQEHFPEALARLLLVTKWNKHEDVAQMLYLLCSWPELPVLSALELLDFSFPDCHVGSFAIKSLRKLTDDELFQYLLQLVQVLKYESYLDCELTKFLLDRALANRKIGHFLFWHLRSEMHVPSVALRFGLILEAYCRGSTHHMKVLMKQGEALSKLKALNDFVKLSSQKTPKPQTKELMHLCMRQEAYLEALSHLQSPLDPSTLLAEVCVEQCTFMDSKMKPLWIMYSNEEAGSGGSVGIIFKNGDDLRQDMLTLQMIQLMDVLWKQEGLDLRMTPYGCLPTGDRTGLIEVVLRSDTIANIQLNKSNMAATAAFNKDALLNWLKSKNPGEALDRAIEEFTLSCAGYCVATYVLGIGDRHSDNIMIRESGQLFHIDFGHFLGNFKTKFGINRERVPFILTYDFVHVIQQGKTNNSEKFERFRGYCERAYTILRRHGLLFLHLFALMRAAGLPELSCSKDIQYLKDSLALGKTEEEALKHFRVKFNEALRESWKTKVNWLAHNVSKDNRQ
The experiment is described as above. The procedure:
as §1

For experiment [5], the target named is Phosphatidylinositol 4,5-bisphosphate 3-kinase catalytic subunit gamma isoform (Homo sapiens, UniProt P48736). Described as above. The procedure: as §1
Experiment [6] addresses Phosphatidylinositol 4,5-bisphosphate 3-kinase catalytic subunit beta isoform (Homo sapiens, UniProt P42338). The experiment is described as above. How it is done: as §1
Experiment [7] addresses Serine/threonine-protein kinase ATR (Homo sapiens, UniProt Q13535). Nature of the experiment: Inhibitory Activity of Compounds on ATR. The procedure: (1) Preparation of 1 kinase buffer and reaction termination solution1) 1 kinase buffer50 mM HEPES, pH 7.50.0015% Brij-[…] MnCl22) Reaction termination solution100 mM HEPES, pH 7.50.015% Brij-350.2% Coating Reagent #350 mM EDTA(2) Preparation of test compound1) The compound was dissolved in DMSO to yield a stock solution. Before the assay, to a 96-well plate, 30 uL of a 10 mM stock solution was taken and added with 60 uL of DMSO. […] 10 µL of the 2 substrate solution was taken to each well of the test plate.3) Kinase reaction:After incubation at 28 C. for a certain time, 30 uL of the reaction termination solution was added to terminate the enzymatic reaction.(5) Reading of the reaction wells(6) Calculation of inhibitory rates by means of curve fitting to the read values.% inhibitory rate=(max+-sample value)/(max+-min)*100; wherein max represents the value of the total reaction well with DMSO but no compound; min represents the value of the blank control well without enzyme and compound.

The structures appear in SMILES notation.

Serine-protein kinase ATM, sequence (Q13315 whole entry): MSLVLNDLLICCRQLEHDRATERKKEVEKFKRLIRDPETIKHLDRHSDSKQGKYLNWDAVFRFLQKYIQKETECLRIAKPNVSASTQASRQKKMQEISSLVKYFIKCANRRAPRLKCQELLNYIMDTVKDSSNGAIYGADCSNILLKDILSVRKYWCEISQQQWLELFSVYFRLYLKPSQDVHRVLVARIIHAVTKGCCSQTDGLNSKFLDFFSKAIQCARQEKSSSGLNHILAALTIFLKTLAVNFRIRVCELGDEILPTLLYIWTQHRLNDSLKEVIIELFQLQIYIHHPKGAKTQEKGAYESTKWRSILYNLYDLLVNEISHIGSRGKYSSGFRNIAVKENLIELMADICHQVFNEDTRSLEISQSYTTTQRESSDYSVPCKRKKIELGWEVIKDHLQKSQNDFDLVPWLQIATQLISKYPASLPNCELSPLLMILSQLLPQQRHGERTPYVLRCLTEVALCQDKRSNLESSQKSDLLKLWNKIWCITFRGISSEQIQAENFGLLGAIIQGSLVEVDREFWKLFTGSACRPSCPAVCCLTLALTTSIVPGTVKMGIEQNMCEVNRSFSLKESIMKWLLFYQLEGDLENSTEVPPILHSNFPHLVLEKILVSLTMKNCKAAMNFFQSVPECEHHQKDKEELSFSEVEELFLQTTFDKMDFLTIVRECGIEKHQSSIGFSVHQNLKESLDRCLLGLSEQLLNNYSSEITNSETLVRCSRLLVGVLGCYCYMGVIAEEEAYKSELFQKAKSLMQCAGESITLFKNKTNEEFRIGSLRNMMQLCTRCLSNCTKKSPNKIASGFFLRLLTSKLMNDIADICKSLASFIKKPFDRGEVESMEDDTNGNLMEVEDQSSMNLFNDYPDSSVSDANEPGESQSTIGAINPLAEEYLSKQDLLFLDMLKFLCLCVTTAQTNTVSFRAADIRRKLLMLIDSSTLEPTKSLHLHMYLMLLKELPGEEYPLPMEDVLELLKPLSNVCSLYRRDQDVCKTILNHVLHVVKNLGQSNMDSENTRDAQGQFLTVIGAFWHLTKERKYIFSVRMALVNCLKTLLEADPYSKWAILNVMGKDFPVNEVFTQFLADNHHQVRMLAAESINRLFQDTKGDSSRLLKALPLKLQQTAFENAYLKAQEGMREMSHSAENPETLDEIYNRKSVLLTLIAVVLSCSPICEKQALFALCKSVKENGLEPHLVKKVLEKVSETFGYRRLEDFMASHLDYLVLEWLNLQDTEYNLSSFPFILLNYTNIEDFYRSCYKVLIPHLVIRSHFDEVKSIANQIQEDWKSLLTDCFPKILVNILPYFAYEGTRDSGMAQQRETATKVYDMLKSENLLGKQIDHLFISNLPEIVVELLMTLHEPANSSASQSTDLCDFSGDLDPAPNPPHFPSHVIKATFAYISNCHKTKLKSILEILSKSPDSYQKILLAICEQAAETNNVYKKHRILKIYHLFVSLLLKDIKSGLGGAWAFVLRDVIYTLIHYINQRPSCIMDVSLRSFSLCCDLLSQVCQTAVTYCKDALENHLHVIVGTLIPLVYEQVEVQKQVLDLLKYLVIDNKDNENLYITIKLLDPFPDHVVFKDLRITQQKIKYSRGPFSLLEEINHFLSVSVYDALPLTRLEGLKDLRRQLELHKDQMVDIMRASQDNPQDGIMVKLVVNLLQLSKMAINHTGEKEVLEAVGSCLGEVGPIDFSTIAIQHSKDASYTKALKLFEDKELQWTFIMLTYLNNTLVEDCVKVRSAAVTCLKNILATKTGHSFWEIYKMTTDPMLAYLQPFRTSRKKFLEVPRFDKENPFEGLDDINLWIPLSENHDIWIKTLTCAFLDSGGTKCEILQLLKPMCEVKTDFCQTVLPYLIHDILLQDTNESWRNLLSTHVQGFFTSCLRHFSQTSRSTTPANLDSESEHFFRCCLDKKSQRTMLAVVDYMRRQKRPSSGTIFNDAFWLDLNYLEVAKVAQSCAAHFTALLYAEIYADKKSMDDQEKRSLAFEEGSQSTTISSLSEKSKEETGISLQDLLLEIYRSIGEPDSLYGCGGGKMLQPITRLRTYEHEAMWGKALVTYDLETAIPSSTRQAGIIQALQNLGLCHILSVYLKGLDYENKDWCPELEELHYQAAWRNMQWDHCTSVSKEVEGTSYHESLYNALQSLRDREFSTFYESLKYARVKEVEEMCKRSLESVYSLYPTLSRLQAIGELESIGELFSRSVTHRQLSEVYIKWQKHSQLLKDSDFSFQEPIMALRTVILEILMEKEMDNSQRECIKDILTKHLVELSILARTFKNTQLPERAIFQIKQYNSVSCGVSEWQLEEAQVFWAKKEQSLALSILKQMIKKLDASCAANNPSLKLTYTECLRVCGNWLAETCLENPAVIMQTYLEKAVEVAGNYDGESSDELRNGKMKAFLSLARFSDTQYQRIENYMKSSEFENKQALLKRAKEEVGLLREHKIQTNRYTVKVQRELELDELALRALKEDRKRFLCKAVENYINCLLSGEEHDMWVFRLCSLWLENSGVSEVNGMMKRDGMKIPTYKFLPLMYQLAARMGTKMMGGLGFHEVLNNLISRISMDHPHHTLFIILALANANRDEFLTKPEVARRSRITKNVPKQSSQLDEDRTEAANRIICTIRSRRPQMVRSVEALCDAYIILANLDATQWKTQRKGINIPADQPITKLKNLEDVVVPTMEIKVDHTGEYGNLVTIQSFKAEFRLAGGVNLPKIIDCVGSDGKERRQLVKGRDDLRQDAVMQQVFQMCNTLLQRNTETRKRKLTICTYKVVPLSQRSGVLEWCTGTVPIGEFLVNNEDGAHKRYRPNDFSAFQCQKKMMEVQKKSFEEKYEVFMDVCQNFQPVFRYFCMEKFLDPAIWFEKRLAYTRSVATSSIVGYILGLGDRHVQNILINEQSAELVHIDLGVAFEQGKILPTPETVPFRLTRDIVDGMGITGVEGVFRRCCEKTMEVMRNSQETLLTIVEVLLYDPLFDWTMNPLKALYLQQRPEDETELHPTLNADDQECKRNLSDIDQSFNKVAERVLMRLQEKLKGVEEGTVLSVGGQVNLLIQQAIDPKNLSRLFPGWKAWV
Phosphatidylinositol 4,5-bisphosphate 3-kinase catalytic subunit gamma isoform, sequence (P48736 whole entry, canonical isoform): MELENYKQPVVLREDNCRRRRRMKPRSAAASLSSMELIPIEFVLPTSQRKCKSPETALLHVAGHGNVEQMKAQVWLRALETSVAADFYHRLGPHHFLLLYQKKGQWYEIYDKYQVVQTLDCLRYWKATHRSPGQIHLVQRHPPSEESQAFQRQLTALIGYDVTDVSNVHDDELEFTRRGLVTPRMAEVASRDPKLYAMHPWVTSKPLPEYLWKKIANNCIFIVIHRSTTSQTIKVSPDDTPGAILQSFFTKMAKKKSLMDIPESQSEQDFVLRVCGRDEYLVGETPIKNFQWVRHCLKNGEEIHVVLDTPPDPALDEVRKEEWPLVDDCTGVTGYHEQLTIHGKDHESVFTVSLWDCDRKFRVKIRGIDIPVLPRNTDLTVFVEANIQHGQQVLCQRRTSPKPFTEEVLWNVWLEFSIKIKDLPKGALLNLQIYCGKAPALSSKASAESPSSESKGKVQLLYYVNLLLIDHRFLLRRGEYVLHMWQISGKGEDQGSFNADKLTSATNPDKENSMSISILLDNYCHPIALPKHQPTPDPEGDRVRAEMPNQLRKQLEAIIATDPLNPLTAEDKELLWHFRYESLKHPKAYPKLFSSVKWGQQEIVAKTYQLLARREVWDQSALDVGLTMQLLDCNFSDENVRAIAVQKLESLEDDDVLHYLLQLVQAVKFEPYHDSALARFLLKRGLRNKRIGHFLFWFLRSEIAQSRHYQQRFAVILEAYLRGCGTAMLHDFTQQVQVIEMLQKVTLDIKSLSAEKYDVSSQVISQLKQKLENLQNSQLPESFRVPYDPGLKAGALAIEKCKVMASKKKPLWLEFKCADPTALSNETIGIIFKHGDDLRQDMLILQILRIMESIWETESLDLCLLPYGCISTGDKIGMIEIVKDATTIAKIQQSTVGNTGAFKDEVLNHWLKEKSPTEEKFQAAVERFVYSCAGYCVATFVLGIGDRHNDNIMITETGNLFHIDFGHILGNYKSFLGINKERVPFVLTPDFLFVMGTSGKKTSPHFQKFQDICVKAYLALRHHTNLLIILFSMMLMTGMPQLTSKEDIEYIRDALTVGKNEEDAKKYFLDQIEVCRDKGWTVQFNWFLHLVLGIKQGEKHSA

In experiment [1], `COc1cc2ncc3c4c2c(oc2ccccc2n4c(=O)n3C)c1-c1cnn(C)c1` [US20240294545, Compound A-33] registered a half-maximal inhibitory concentration (IC50) of 0.08 nM.
`CC[C@@H]1CNc2c(-c3ccc(OCCCN4CCCCC4)nc3)c(F)cc3ncc4c(c23)n1c(=O)n4C` [US20240294545, Compound A-194] registered an IC50 in experiment [1] of 0.45 nM. This IC50 is about 5.6-fold higher than that of the compound before.
`Cn1c(=O)n2c3c4c(c(-c5ccc(OCCCN6CC7CC7C6)nc5)c(F)cc4ncc31)OCC21CCC1` (stereo not given) [US20240294545, Compound A-170] returned a half-maximal inhibitory concentration (IC50) in experiment [1] of 0.7 nM.
In turn, `CC[C@@H]1CNc2c(-c3ccc(OCCCN4CCCCC4)nc3)ccc3ncc4c(c23)n1c(=O)n4C` [US20240294545, Compound A-201] gave an IC50 in experiment [1] of 0.61 nM.
Consider `Cn1c(=O)n2c3c4c(c(-c5ccc(OCCCN6CCCCC6)nc5)c(F)cc4ncc31)OCC21CCOCC1` [US20240294545, Compound A-204], for which the IC50 in experiment [1] was found to be 0.78 nM.
Still for that read-out and setting: the figure for `Cn1c(=O)n2c3c4c(c(-c5ccc(OCCCN6CCC7(CC6)COC7)nc5)c(F)cc4ncc31)OCC21CCC1` [US20240294545, Compound A-167] is 0.33 nM.
As to `Cn1c(=O)n2c3c4c(c(-c5ccc(OCCCN6CCCCC6)nc5)c(F)cc4ncc31)OC1CCCCC12` (stereo not given) [US20240294545, Compound A-21], the IC50 in experiment [2] is 2230 nM; in experiment [3], greater than 10000 nM; in experiment [4], greater than 10000 nM; in experiment [5] it was greater than 10000 nM; in experiment [6], greater than 10000 nM; in experiment [1] it was 0.45 nM. In experiment [7], this compound registered a half-maximal inhibitory concentration (IC50) greater than 10000 nM.
In experiment [1], `Cn1c(=O)n2c3c4c(c(-c5ccc(OCCCN6CCC(F)CC6)nc5)c(F)cc4ncc31)OCC21CCC1` [US20240294545, Compound A-165] gave a 50% inhibitory concentration (IC50) of 0.37 nM.
In experiment [1], `Cn1c(=O)n2c3c4c(c(-c5ccc(OCCCN6CCC(C#N)CC6)nc5)c(F)cc4ncc31)OCC21CCC1` [US20240294545, Compound A-166] had a half-inhibitory concentration (IC50) of 0.21 nM. This IC50 is about 1.8-fold lower than that of the compound before.

These data come from BindingDB's records for patent US20240294545 (Cspc Zhongqi Pharmaceutical Technology (Shijiazhuang), 2024).
